Assay results published in US12685731B2, “Organic compounds” (INTRA-CELLULAR THERAPIES, INC., priority 2018, dated 2026).
Read-outs that look alike come from different tables or passages of the source.

Columns and labels:
[1] = Measurement of parent and metabolite levels in mice (plasma and brain levels after single oral co-dosing); format: in vivo; details: for Cmax / Tmax / AUC / concentration at […] / concentration at 0.5 h / concentration at 1 h / concentration at 2 h / concentration at 4 h: mouse, single dose oral, co-dosed; for AUC: 0.25-4 hr sampling; for concentration at […]: 0.25 hr
Method: The compound of Example 1 and the compound of Formula Q are co-dosed in mice (n=3), and the levels of the both compounds are studied. Procedures for the synthesis of the compound of Formula Q can be found in WO 2008/112280. […] The mean values for maximum concentration, time to maximum concentration, and Area Under the Curve (AUC) for both compounds is determined.

[2] = system: dopamine receptor (e.g., D2); test: Receptor binding studies, dopamine receptor
serotonin transporter = serotonin transporter (Homo sapiens, UniProt P31645); test: Receptor binding studies, serotonin transporter
Sequence of serotonin transporter (P31645 whole entry): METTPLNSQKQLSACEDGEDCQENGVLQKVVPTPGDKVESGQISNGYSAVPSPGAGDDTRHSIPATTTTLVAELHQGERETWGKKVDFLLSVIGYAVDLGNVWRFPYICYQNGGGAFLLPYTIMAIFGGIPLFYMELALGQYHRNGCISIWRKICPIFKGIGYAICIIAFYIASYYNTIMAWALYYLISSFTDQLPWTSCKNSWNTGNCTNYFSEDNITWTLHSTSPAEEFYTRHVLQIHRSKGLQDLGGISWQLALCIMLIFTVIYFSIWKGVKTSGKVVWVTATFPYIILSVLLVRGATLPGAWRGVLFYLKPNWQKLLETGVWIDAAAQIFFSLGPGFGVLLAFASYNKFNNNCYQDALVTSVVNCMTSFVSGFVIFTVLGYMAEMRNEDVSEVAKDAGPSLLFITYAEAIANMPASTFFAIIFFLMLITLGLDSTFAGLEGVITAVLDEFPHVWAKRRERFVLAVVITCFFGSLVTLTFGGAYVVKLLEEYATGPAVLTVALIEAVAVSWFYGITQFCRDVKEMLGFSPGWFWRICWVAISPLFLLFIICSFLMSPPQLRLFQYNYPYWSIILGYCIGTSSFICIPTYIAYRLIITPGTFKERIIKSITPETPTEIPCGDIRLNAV

[3] = system: serotonin receptor (e.g., 5-HT2A); test: Receptor binding studies, serotonin receptor
[4] = mean n=3, brain, read-out: Brain level
[5] = mean n=3, plasma, read-out: Plasma level

SMILES	Cmax ([1]; brain) [ng/g]	Tmax ([1]; brain) [min]	AUC ([1]; brain) [ng·h/mL]	concentration at […] [1, 4] [ng/g]	concentration at 0.5 h [1, 4] [ng/g]	concentration at 1 h [1, 4] [ng/g]	concentration at 2 h [1, 4] [ng/g]	concentration at 4 h [1, 4] [ng/g]	concentration at […] [1, 5] [ng/mL]	concentration at 0.5 h [1, 5] [ng/mL]	concentration at 1 h [1, 5] [ng/mL]	concentration at 2 h [1, 5] [ng/mL]	concentration at 4 h [1, 5] [ng/mL]	Cmax ([1]; plasma) [ng/mL]	Tmax ([1]; plasma) [min]	AUC ([1]; plasma) [ng·h/mL]	Metabolic clearance compared to the compound of Formula Q ([1]; concluded from higher Cmax and AUC values)	Receptor binding profile compared to the compound of Formula Q [2]	Receptor binding profile compared to the compound of Formula Q (serotonin transporter)	Receptor binding profile compared to the compound of Formula Q [3]
CN1CCN2c3c(cccc31)[C@@H]1CN(CCCC(=O)c3ccc(F)cc3)CC[C@@H]12 [Formula Q, reference compound]	384	30	387	228	384	37.9	65.6	58.8	28.2	34.9	11	29.9	16.3	34.9	30	89.5	–	–	–	–
[2H]C1([2H])N(C)c2cccc3c2N([C@H]2CCN(CCCC(=O)c4ccc(F)cc4)C[C@@H]32)C1([2H])[2H] [Example 1, 1-(4-fluorophenyl)-4-((6bR,10aS)-1,1,2,2-tetradeuterio-3-methyl-2,3,6b,7,10,10a-hexahydro-1H-pyrido[3′,4′:4,5]pyrrolo[1,2,3-de]quinoxalin-8(9H)-yl) butan-1-one p-toluenesulfonate]	402	30	404	238	402	39.4	67.7	62.1	30.4	38.1	11.6	31.4	16.8	38.1	30	94.5	reduced metabolic clearance	substantially the same receptor binding profile	substantially the same receptor binding profile	substantially the same receptor binding profile
